Measured values published in US8778954B2, “Phenylpyridine derivative and medicinal agent comprising same” (Kowa Company, Ltd., priority 2009, dated 2014).
pEC50: −log10 of the molar value.

Legend:
db/db mice = test: Impaired glucose tolerance improving activity in type 2 diabetes model mouse; format: in vivo; conditions: oral once a day, Example 23 10 mg/kg, Example 21 30 mg/kg, telmisartan 30 mg/kg
Procedure: By using 7-week old db/db mice, the body weight and the plasma glucose concentration of each mouse were measured before administration of the medicine, and group separation was performed by blocking assignment so that there was no variation of these values between respective groups. Solvent control (0.5% MC), 5 mg/kg rosiglitazone, 30 mg/kg telmisartan, 10 mg/kg of the compound of Example 23, and 30 mg/kg of the compound of Example 21 were orally administered iteratively for 4 weeks, once a day. Blood collecting was performed from the orbital vein plexus, and the plasma glucose concentration was measured at 2 weeks after the initiation of the administration. Furthermore, oral glucose tolerance test was performed at 4 weeks after the initiation of the administration. Specifically, the mouse was fasted for 24 hours from the night before the glucose tolerance test, and then a glucose solution was orally administered at a dose of 2 g/kg. The blood was collected from the tail vein of the mouse at 15, 30, 60, and 120 minutes after the administration of the glucose solution, and the concentration of the plasma glucose was measured. The area surrounded with the measured plasma glucose concentration and the time was taken as the area under the curve (AUC), and AUC for 120 minutes after administration of the glucose solution was estimated from the trapezoidal method.
Vehicle, Rosiglitazone, Telmisartan, Compound 23, and Compound 21 in FIGS. 2 and 3 represent solvent control, rosiglitazone, telmisartan, the compound of Example 23, and the compound of Example 21, respectively. The vertical axis of FIG. 2 represents the plasma glucose concentration. The data in FIG. 2 represents individual values and average values of each individual. The vertical axis of FIG. 3 represents the area under the curve surrounded with the plasma glucose concentration and the time (for 120 minutes after administration of the glucose solution). The data in FIG. 3 represents individual values and average values of each individual. […] Such activities were not confirmed for the telmisartan administration group.

human PPARγ2 = molecular target: T1, human PPARγ2 (Homo sapiens, UniProt P37231); test: PPARγ activation activity, Gal4-PPARγ2 LBD luciferase transfection assay using COS7 cells; format: cell-based; conditions: Gal4-human PPARγ2 LBD chimera, 16 hours, rosiglitazone = 100%
T1 construct: the amino acids 182 to 505 of human PPARγ2; expressed in transfected cells; host or cells: COS7 cells (African green monkey kidney)
T1 sequence (P37231 182-505): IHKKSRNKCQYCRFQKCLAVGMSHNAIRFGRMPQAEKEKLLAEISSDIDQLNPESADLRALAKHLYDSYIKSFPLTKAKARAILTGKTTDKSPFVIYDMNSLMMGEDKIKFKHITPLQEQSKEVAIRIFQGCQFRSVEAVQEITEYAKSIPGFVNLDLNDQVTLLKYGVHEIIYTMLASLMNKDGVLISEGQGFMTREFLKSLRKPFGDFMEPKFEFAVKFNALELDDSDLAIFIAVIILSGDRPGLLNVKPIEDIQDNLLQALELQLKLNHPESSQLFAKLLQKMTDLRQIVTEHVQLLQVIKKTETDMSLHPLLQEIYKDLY
Procedure: The agonistic activity of the compounds of the invention on PPARγ was measured based on the transfection assay using COS7 cells (DS Pharma Biomedical Co., Ltd., Osaka, Japan), which are the cell line derived from the kidney of the African green monkey. COS7 cells were cultured under 5% CO2 concentration, and DMEM medium containing 10% fetal bovine serum, glutamic acid, and antibiotics was used as a medium.
As an expression vector, a chimera in which DNA binding domain of Gal4, which is a yeast transcription factor, and ligand binding domain of human PPARγ2 are fused, i.e., a fused product between the amino acids 1 to 147 of Gal4 transcription factor and the amino acids 182 to 505 of human PPARγ2, was used. Furthermore, as a reporter vector, a firefly luciferase containing five copies of Gal4 recognition sequence in the promoter region was used. Plasmid transfection to the cells was performed according to a method which uses jetPEI (trade name, manufactured by Funakoshi Co., Ltd., Tokyo, Japan). Furthermore, β-galactosidase expression vector was employed as an internal standard.
After the transfection of the cells, the medium was replaced with a DMEM medium (containing 1% serum) added with the test compound, and the cells were further cultured for 16 hours. After that, the luciferase activity and β-galactosidase activity in the cell lysis solution were measured.
For the present test, dimethyl sulfoxide (DMSO) was used for dissolution and dilution of the test compounds, and during the cell treatment, the DMSO concentration in DMEM medium (containing 1% serum) was adjusted to 0.1%. As a positive compound, rosiglitazone (trade name, manufactured by ALEXIS Corporation, Switzerland) was used. The luciferase activity (%) of the test compounds (1 to 30 μmol/L) was calculated when the luciferase activity of rosiglitazone (3 to 10 μmol/L) is 100% and the luciferase activity in the absence of the test compound is 0%. The 50% effective concentration of the test compound (EC50, 50% effect concentration) was calculated by using SAS Preclinical Package Ver 5.0 (trade name, manufactured by SAS institute Japan Co., Tokyo, Japan), which is a statistical analysis program.
EC50 values of these compounds are described in Table 2. […] Under the same condition, the PPARγ activation activity of telmisartan, i.e., EC50, was 1 to 5 μM.

[1] = system: Zucker diabetic fatty (ZDF) rats; test: Activity for diabetic nephropathy in Zucker diabetic fatty rats; format: in vivo, rat; conditions: 3 mg/kg once a day for 15 weeks, FIG. 5
Procedure: By using 8-week old Zucker diabetic fatty (ZDF) rats, the body weight, the elimination amount of urinary total protein (UTP), the plasma triglyceride concentration (TG), and the plasma total cholesterol concentration (TC) of each rat were measured before administration of the medicine, and group separation was performed by blocking assignment so that there was no variation of these values between respective groups. Solvent control (0.5% MC), 3 mg/kg telmisartan, 3 mg/kg of the compound of Example 21, and 3 mg/kg of the compound of Example 23 were administered iteratively for 15 weeks once a day. UTP, TG, and TC were measured according to a general method during the administration period at 4, 8, 12, and 15 weeks after the administration.
Vehicle, Telmisartan, Compound 23, and Compound 21 in FIGS. 4, 5, and 6 represent solvent control, telmisartan, the compound of Example 23, and the compound of Example 21, respectively. The horizontal axis of FIG. 4-1 represents time (weeks after administration), and the vertical axis represents the elimination amount of urinary total protein per 18 hours. The data in FIG. 4-1 represents average values of each individual in each point, wherein -●- represents Vehicle (solvent control), -♦- represents Telmisartan, -▪- represents Compound 23 (the compound of Example 23), and -▴- represents Compound 21 (the compound of Example 21). The vertical axis of FIG. 4-2 represents the elimination amount of urinary total protein per 18 hours. The data in FIG. 4-2 represents individual values and average values of each individual +standard deviation.
The vertical axis of FIG. 5 represents the plasma triglyceride concentration. The data in FIG. 5 represents individual values and average values of each individual.
The vertical axis of FIG. 6 represents the plasma total cholesterol concentration. The data in FIG. 6 represents individual values and average values of each individual.
Furthermore, it was believed that one reason for the potent activity may be related to improving activity of lipid metabolism, and it is believed that the potent activity is attributed to activities other than the angiotensin receptor antagonistic activity.

Q: `CCCc1nc2c(C)cc(-c3nc4ccccc4n3C)cc2n1Cc1ccc(-c2ccccc2C(=O)O)cc1` [telmisartan, reference compound] was tested. Which plasma glucose concentration (db/db mice; 2 weeks after initiation, FIG. 2) did it give?
A: The plasma glucose concentration was “not confirmed”.

Q: What about the “AUC of plasma glucose in the glucose tolerance test (120 minutes after glucose solution)” value (db/db mice; 4 weeks, glucose 2 g/kg, FIG. 3) of the same molecule?
A: The value was “not confirmed”.

Q: What about the pEC50 (human PPARγ2) of the same molecule?
A: Its pEC50 is 5.30 to 6.00.

Q: What about the plasma triglyceride concentration [1] of the same molecule?
A: The plasma triglyceride concentration was “such activity was not found”.
